Results published in patent US20200262869A1, “PEPTIDE ANTIBIOTIC COMPLEXES AND METHODS OF USE THEREOF” (GENENTECH, INC., priority 2017, published 2020).
≈ marks a conversion by molar mass, not a printed value. Read-outs that look alike come from different tables or passages of the source.

Assays:
[1] = tested on: E. coli K-12 MG1655 and isogenic matched strains; assay: MIC against E. coli K-12 MG1655 and isogenic matched strains; type: cell-based; details: for MIC: Escherichia coli
Experimental: (§1) Minimum Inhibitory Concentration (MIC). MICs were determined by performing two-fold serial dilutions of compound in Mueller Hinton II cation-adjusted broth to a final volume of 0.1 m1 in round-bottom 96-well assay plates (Corning Life Sciences No 3788). Each well was inoculated with 5×10^5 CFU/ml and incubated at 37° C. without agitation for 18 hours. Plates were scored by eye, and the lowest compound concentration preventing visible growth was determined to be the MIC.

[2] = tested on: E. coli ATCC 25922 point mutants; assay: MIC against spontaneous G0775-resistant point mutants; type: cell-based
Experimental: as §1
(§2) 20 independent colonies from each bacterial species were scraped and used to establish an overnight culture. Bacteria were concentrated by centrifugation, and approximately 3×10^9 CFUs were spread on cation adjusted Mueller Hinton agarose (MHA) plates containing G0775 at 2- to 8-times the MIC. The MHA plates were prepared from Mueller Hinton II cation adjusted broth (BBL™ 212322) and SeaKem LE Agarose (17 g/L; Lonza) as per manufactures instructions. Resistance frequency for each strain was calculated by dividing the number of colonies formed after a 48 hour incubation at 37° C. by the initial viable cell count.

[3] = tested on: 49 multidrug resistant clinical isolates of E. coli and K. pneumoniae; assay: MIC against CDC challenge panel of 49 multidrug resistant clinical isolates; type: cell-based; details: CDC challenge set
Experimental: To better assess the ability of G0775 to circumvent specific resistance mechanisms, a single MDR isolate, CDC 0106, was focused on. […] Chromosomal mutations associated with high level quinolone resistance and polymyxin resistance were also identified (FIGS. 10A-10B). Importantly, the elements encoded by CDC 0106 confer resistance to nearly all available antibiotic classes (Table 2).
as §1

E. coli ATCC 25922 = assay: Time-kill; type: cell-based; details: E. coli ATCC 25922, across a 24 hour period
From the text: FIG. 5. […] Colony forming units (CFU) per mL data shown is an average of at least three independent experiments with error bars representing the SD.

K. pneumoniae 43816 = assay: Frequency of resistance (FOR); type: cell-based; details: G0775 at 8-fold the MIC; limit of detection 10^−10
Experimental: as §2

P. aeruginosa PAO1 = assay: Frequency of resistance (FOR); type: cell-based; details: further 2-fold increase over 8-fold the MIC (16-fold MIC)
Experimental: as §2

[4] = molecular target: T1, full length recombinant LepB from E. coli (Escherichia coli, UniProt P00803); assay: LepB kinetic enzyme assay (fluorogenic peptide substrate); type: biochemical
T1 construct: 500 pM full length recombinant LepB from E. coli
Experimental: A 20 μL reaction in PBS (pH 7.4) containing 0.1% Triton X-100 was initiated by adding 500 pM full length recombinant LepB from E. coli to a 384-well polypropylene assay plate (Thermo Scientific) containing indicated concentration of G0775 and 10 uM fluorogenic peptide substrate Dabcyl-DAP-PAKAAE-Edans (SEQ ID NO: 6) (GL Biochem, Boston, Mass.). Substrate cleavage separates the Dabcyl quencher from the Edans fluorophore, resulting in 490 nm fluorescence (340 nm excitation). The reaction was read kinetically using a pherastar plate reader (BMG Labtech), and curves were fit to a 2-step irreversible binding model using Dynafit software (BioKin Ltd.) to determine Kinact/KI binding constants.

A. baumannii 17978 = assay: Neutropenic thigh infection model in mice; type: in vivo; details: required a higher concentration of antibiotic; subcutaneous BID
Experimental: (§3) CD1 mice (Charles River Laboratories) were rendered neutropenic by 2 intraperitoneal injections of Cytoxan (Baxter Health Care Corporation) at 150 mg/kg on Day -5 and 100 mg/kg on Day -2. On day 0, 50 ul log-phase grown bacteria, K. pneumoniae (ATCC 43816) 1×10^5 CFU/mouse, E. coli (ATCC 25922) 1×10^5 CFU/mouse, P. aeruginosa (ATCC 27853) 1×10^6 CFU/mouse, or A. baumannii (ATCC 17978) 1×10^5 CFU/mouse, were injected into the mouse thigh muscle. At 2 and 11 hours post infection, […] was given at indicated dose subcutaneously. At 20 hours post infection, CFU was determined in the thigh muscle through serial dilutions.

[5] = tested on: E. coli strain ATCC 25922; assay: Neutropenic thigh infection model in mice; type: in vivo; details: 1 mg/kg subcutaneously BID at 2 and 11 h, 20 h post infection
Experimental: as §3

[6] = tested on: K. pneumoniae strain ATCC 43816; assay: Neutropenic thigh infection model in mice; type: in vivo; details: 5 mg/kg subcutaneously BID at 2 and 11 h, 20 h post infection
Experimental: as §3

P. aeruginosa 27853 = assay: Neutropenic thigh infection model in mice; type: in vivo; details: required a higher concentration of antibiotic; subcutaneous BID
Experimental: as §3

K. pneumoniae (CDC 0106) = assay: Neutropenic lung infection model in mice; type: in vivo; details: 20 h
Experimental: Balb/c mice (Jackson Laboratories) were rendered neutropenic by 2 intraperitoneal injections of Cytoxan (Baxter Health Care Corporation) at 150 mg/kg on Day −4 and 100 mg/kg on Day −1. On day 0, mice were infected intranasally with 40 ul log-phase grown K. pneumoniae (CDC 0106) at 1×10^6 CFU/mouse. At 2 and 11 hours post infection, G0775 was given at different doses subcutaneously. Ciprofloxacin (Claris Lifesciences Inc.) was dosed at 80 mg/kg subcutaneously once at 2 hour post infection. At 20 hours post infection, CFU was determined in the lung through serial dilutions.

For `Cc1nc(-c2ccc(C(C)(C)C)cc2)ncc1C(=O)NC(CCN)C(=O)N(C)C1C(=O)NC(C)C(=O)NC(C(=O)NCC#N)Cc2ccc(OCCN)c(c2)-c2cc1ccc2OCCN` (stereo not drawn) [G0775], the MIC ([1]; MG1655, read-out: G0775 MIC, MG 1655 - LepB High, increase LepB expression level) was 1 µg/mL (≈ 1.12 µM), the MIC ([1]; MG1655, read-out: G0775 MIC, MG 1655 - LepB Low, reduced LepB expression level) was 0.008 µg/mL (≈ 0.00899 µM) and the MIC ([1]; MG1655, read-out: G0775 MIC, MG 1655 LptD4213 (imp), outer-membrane permeable) was 0.004 µg/mL (≈ 0.00449 µM). The MIC ([1]; MG1655, read-out: G0775 MIC, MG1655 WT) was 0.125 µg/mL (≈ 0.14 µM), the MIC ([1]; MG1655, read-out: G0775 MIC, MG1655 WT + 4 mM EDTA, outer-membrane permeable) was 0.004 µg/mL and the MIC ([1]; MG1655, read-out: G0775 MIC, MG1655 WT + 1% surfactant, lung inactivation) was 0.125 µg/mL. For the same compound, the MIC ([1]; MG1655, read-out: G0775 MIC, MG1655 WT + 50% serum, plasma protein binding) was 0.125 µg/mL, the MIC ([1]; MG1655, read-out: G0775 MIC, MG 1655 ΔacrB, efflux null) was 0.125 µg/mL (≈ 0.14 µM) and the MIC ([1]; MG1655, read-out: G0775 MIC, MG 1655 ΔompC, ΔompF, doubly porin deficient) was 0.125 µg/mL (≈ 0.14 µM). For the same compound, the MIC ([1]; MG1655, read-out: G0775 MIC, MG 1655 ΔompC, porin deficient) was 0.125 µg/mL (≈ 0.14 µM), the MIC ([1]; MG1655, read-out: G0775 MIC, MG 1655 ΔompF, porin deficient) was 0.125 µg/mL (≈ 0.14 µM) and the MIC ([1]; MG1655, read-out: G0775 MIC, MG 1655 ΔtolC, efflux null) was 0.125 µg/mL (≈ 0.14 µM). The “increase in potency relative to wild type E. coli” value ([1]; hyper-permeable E. coli strain (imp4213)) was 30 fold, the “increase in MIC values” ([1]; over-expression of LepB in E. coli K12 MG1655) was 8 fold and the “decrease in MIC values” ([1]; under-expression of LepB in E. coli K12 MG1655) was 16 fold. For the same compound, the “Fold MIC Increase” value ([2]; LepB mutation A297V) was 4 Fold, the “Fold MIC Increase” value ([2]; LepB mutation D143Y) was 8 Fold and the “Fold MIC Increase” value ([2]; LepB mutation E83K) was 16 Fold. The “Fold MIC Increase” value ([2]; LepB mutation F85S) was 8 Fold, the “Fold MIC Increase” value ([2]; LepB mutation L142R) was 8 Fold and the “Fold MIC Increase” value ([2]; LepB mutation P88L) was 16 Fold. For the same compound, the “Fold MIC Increase” value ([2]; LepB mutation P88Q) was 4 Fold, the “Fold MIC Increase” value ([2]; LepB mutation P88R) was 16 Fold and the “Fold MIC Increase” value ([2]; LepB mutation P88T) was 4 Fold. The “Fold MIC Increase” value ([2]; LepB mutation V133F) was 16 Fold, the “Fold MIC Increase” value ([2]; LepB mutation V149(VVGLP)) was 128 Fold and the “Fold MIC Increase” value ([2]; mutation AcrB (N282Y), off-target) was 4 Fold. For the same compound, the “reduction of susceptibility to G0775 by resistance mutations” value ([2]; resistant E. coli mutants) was 4- to 16 fold, the “activity against panel of 49 multidrug resistant clinical isolates (MIC)” value [3] was “maintains its potent activity against all 49 isolates” and the “reduction of the number of viable bacteria (time-dependent killing)” value (E. coli ATCC 25922) was “over 6 orders of magnitude”. The “frequency of resistance (FOR)” value (K. pneumoniae 43816) was “below the limit of detection”, the “frequency of resistance (FOR)” value (P. aeruginosa PAO1) was < 10^−10 and the kinact/KI ([4]; full-length LepB embedded in a detergent micelle) was 1.59e+06 M⁻¹ s⁻¹. For the same compound, the Ki ([4]; full-length LepB embedded in a detergent micelle, read-out: KI (prechemistry binding)) was 440 pM, the kinact ([4]; read-out: kinact (irreversible inactivation)) was 0.0007 s⁻¹ and the kinact ([4]; three independent experiments, read-out: Kinact) was 0.0007 ± 0.0002 s⁻¹. The “efficacy in neutropenic thigh model” value (A. baumannii 17978) was “efficacious”, the “decrease in CFU (bactericidal activity)” value [5] was greater than 2 log and the “decrease in CFU (bactericidal activity)” value [6] was greater than 2 log. The “efficacy in neutropenic thigh model” value (P. aeruginosa 27853) was “efficacious”, the “antibacterial activity in lung infection model” value (K. pneumoniae (CDC 0106); 2 mg/kg subcutaneously BID) was “bacteriostatic activity” and the “antibacterial activity in lung infection model” value (K. pneumoniae (CDC 0106); 20 mg/kg subcutaneously BID) was “bactericidal activity”.
